Measured values: US11358952B2, “Substituted 4-aminoisoindoline-1,3-dione compounds, compositions thereof, and methods of treatment therewith” (Celgene Corporation, priority 2018, dated 2022)
pIC50: −log10 of the molar value.

System: SU-DHL-4 cell line
Assay: SU-DHL-4 cell proliferation assay (Cell Titer-Glo viability)
Assay type: cell-based
Settings: Homo sapiens; cell viability IC50 activity level, DLBCL cell line SU-DHL-4, 120 hours post-treatment; read-out: SU-DHL-4 Act
Outline: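 SU-DHL-4 cells (500/well, RPMI-1640 + 10% FBS) exposed to 20-point compound dilutions (0.5 nM–10 μM, 0.1% DMSO) for 120 h at 37°C, 5% CO2. Viability measured by Cell Titer-Glo luminescence at t0 and at 120 h. IC50 is the concentration giving 50% of DMSO control, from a four-parameter logistic fit.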

SMILES | pIC50
Cc1cc(CN2CCN(C(C)(C)C)CC2)ccc1CNc1cccc2c1C(=O)N(C1CCC(=O)NC1=O)C2=O (stereo not drawn) [Cpd 97, 4-(4-((4-tert-butylpiperazin-1-yl)methyl)-2-methylbenzylamino)-2-(2,6-dioxopiperidin-3-yl)isoindolline-1,3-dione] | 6.12 to 6.30
O=C1CCC(N2C(=O)c3cccc(NCc4ccc(CN5CC(N6C7CCC6COC7)C5)cc4)c3C2=O)C(=O)N1 (stereo not drawn) [Cpd 248, 4-(4-((3-(3-oxa-8-azabicyclo[3.2.1]octan-8-yl)azetidin-1-yl)methyl)benzylamino)-2-(2,6-dioxopiperidin-3-yl)isoindoline-1,3-dione] | > 6.70
CC(C)(C)OC1CCN(Cc2ccc(CNc3cccc4c3C(=O)N(C3CCC(=O)NC3=O)C4=O)cc2F)CC1 (stereo not drawn) [Cpd 146, 4-(4-((4-tert-butoxypiperidin-1-yl)methyl)-3-fluorobenzylamino)-2-(2,6-dioxopiperidin-3-yl)isoindoline-1,3-dione] | > 6.70
Cc1cc(CNc2cccc3c2C(=O)N(C2CCC(=O)NC2=O)C3=O)ccc1CN1CCC(C)(C)CC1 (stereo not drawn) [Cpd 42, 4-(4-((4,4-dimethylpiperidin-1-yl)methyl)-3-methylbenzylamino)-2-(2,6-dioxopiperidin-3-yl)isoindoline-1,3-dione] | > 6.70
O=C1CCC(N2C(=O)c3cccc(NCc4ccc(CN5CCC(O)(C(F)(F)F)CC5)cc4)c3C2=O)C(=O)N1 (stereo not drawn) [Cpd 130, 2-(2,6-dioxopiperidin-3-yl)-4-(4-((4-hydroxy-4-(trifluoromethyl)piperidin-1-yl)methyl)benzylamino)isoindoline-1,3-dione] | 6.00 to 6.12
O=C1CCC(N2C(=O)c3cccc(NCc4ccc(CN5CC6(C5)CC(F)(F)C6)cc4)c3C2=O)C(=O)N1 (stereo not drawn) [Cpd 116, 4-(4-((6,6-difluoro-2-azaspiro[3.3]heptan-2-yl)methyl)benzylamino)-2-(2,6-dioxopiperidin-3-yl)isoindoline-1,3-dione] | 6.00 to 6.12
N#Cc1ccc(OC2CN(Cc3ccc(CNc4cccc5c4C(=O)N(C4CCC(=O)NC4=O)C5=O)cc3)C2)cc1 (stereo not drawn) [Cpd 74, 4-(1-(4-((2-(2,6-dioxopiperidin-3-yl)-1,3-dioxoisoindolin-4-ylamino)methyl)benzyl)azetidin-3-yloxy)benzonitrile] | 6.12 to 6.30
O=C1CCC(N2C(=O)c3cccc(NCc4ccc(CN5CCC(OCC6CC6)CC5)cc4)c3C2=O)C(=O)N1 (stereo not drawn) [Cpd 127, 4-(4-((4-(cyclopropylmethoxy)piperidin-1-yl)methyl)benzylamino)-2-(2,6-dioxopiperidin-3-yl)isoindoline-1,3-dione] | 6.00 to 6.12
C[C@@H]1CN(c2ccc(C#N)cn2)CCN1Cc1ccc(CNc2cccc3c2C(=O)N(C2CCC(=O)NC2=O)C3=O)cc1 (stereo partly drawn) [Cpd 53, 6-((3R)-4-(4-((2-(2,6-dioxopiperidin-3-yl)-1,3-dioxoisoindolin-4-ylamino)methyl)benzyl)-3-methylpiperazin-1-yl)nicotinonitrile] | > 6.70
CC(C)(C)C1CCN(Cc2ccc(CNc3cccc4c3C(=O)N(C3CCC(=O)NC3=O)C4=O)cc2)CC1 (stereo not drawn) [Cpd 37, 4-(4-((4-tert-butylpiperidin-1-yl)methyl)benzylamino)-2-(2,6-dioxopiperidin-3-yl)isoindoline-1,3-dione] | > 6.70
CC(C)OC1CCN(Cc2ccc(CNc3cccc4c3C(=O)N(C3CCC(=O)NC3=O)C4=O)cc2)CC1 (stereo not drawn) [Cpd 24, 2-(2,6-dioxopiperidin-3-yl)-4-(4-((4-isopropoxypiperidin-1-yl)methyl)benzylamino)isoindoline-1,3-dione] | 6.30 to 6.70
Cc1cc(CN2CCC(C(C)C)CC2)ccc1CNc1cccc2c1C(=O)N(C1CCC(=O)NC1=O)C2=O (stereo not drawn) [Cpd 100, 2-(2,6-dioxopiperidin-3-yl)-4-(4-((4-isopropylpiperidin-1-yl)methyl)-2-methylbenzylamino)isoindoline-1,3-dione] | 6.30 to 6.70
Cc1cc(CN2CCN(c3ccc(F)cc3F)CC2)ccc1CNc1cccc2c1C(=O)N(C1CCC(=O)NC1=O)C2=O (stereo not drawn) [Cpd 101, 4-(4-((4-(2,4-difluorophenyl)piperazin-1-yl)methyl)-2-methylbenzylamino)-2-(2,6-dioxopiperidin-3-yl)isoindoline-1,3-dione] | 6.30 to 6.70
C[C@@H]1CN(c2ccc(C#N)cc2Cl)CCN1Cc1ccc(CNc2cccc3c2C(=O)N(C2CCC(=O)NC2=O)C3=O)cc1 (stereo partly drawn) [Cpd 62, 3-chloro-4-((3R)-4-(4-((2-(2,6-dioxopiperidin-3-yl)-1,3-dioxoisoindolin-4-ylamino)methyl)benzyl)-3-methylpiperazin-1-yl)benzonitrile] | > 6.70
Cc1cc(CNc2cccc3c2C(=O)N(C2CCC(=O)NC2=O)C3=O)ccc1CN1CCN(C(C)(C)C)CC1 (stereo not drawn) [Cpd 68, 4-(4-((4-tert-butylpiperazin-1-yl)methyl)-3-methylbenzylamino)-2-(2,6-dioxopiperidin-3-yl)isoindoline-1,3-dione] | > 6.70
Cc1cc(CNc2cccc3c2C(=O)N(C2CCC(=O)NC2=O)C3=O)ccc1CN1CCN(c2ccc(C(N)=O)nc2)CC1 (stereo not drawn) [Cpd 49, 5-(4-(4-((2-(2,6-dioxopiperidin-3-yl)-1,3-dioxoisoindolin-4-ylamino)methyl)-2-methylbenzyl)piperazin-1-yl)picolinamide] | > 6.70
O=C1CCC(N2C(=O)c3cccc(NCc4ccc(CN5CCC(F)(c6ccccn6)CC5)cc4)c3C2=O)C(=O)N1 (stereo not drawn) [Cpd 19, 2-(2,6-dioxopiperidin-3-yl)-4-(4-((4-fluoro-4-(pyridin-2-yl)piperidin-1-yl)methyl)benzylamino)isoindoline-1,3-dione] | 6.12 to 6.30

More lines, now with the values ahead:

pIC50 | SMILES
6.12 to 6.30 | NC(=O)c1ccc(N2CCN(Cc3ccc(CNc4cccc5c4C(=O)N(C4CCC(=O)NC4=O)C5=O)cc3F)CC2)nc1 (stereo not drawn) [Cpd 152, 6-(4-(4-((2-(2,6-dioxopiperidin-3-yl)-1,3-dioxoisoindolin-4-ylamino)methyl)-2-fluorobenzyl)piperazin-1-yl)nicotinamide]
> 6.70 | O=C1CC[C@@H](N2C(=O)c3cccc(NCc4ccc(CN5CC(N6CCOCC6)C5)cc4F)c3C2=O)C(=O)N1 [Cpd 209, (R)-2-(2,6-dioxopiperidin-3-yl)-4-(2-fluoro-4-((3-morpholinoazetidin-1-yl)methyl)benzylamino)isoindoline-1,3-dione]
> 6.70 | Cc1cc(CNc2cccc3c2C(=O)N(C2CCC(=O)NC2=O)C3=O)ccc1CN1CC2(CCOCC2)C1 (stereo not drawn) [Cpd 220, 4-(4-(7-oxa-2-azaspiro[3.5]nonan-2-ylmethyl)-3-methylbenzylamino)-2-(2,6-dioxopiperidin-3-yl)isoindoline-1,3-dione]
> 6.70 | NC(=O)c1ccc(N2CCN(Cc3ccc(CNc4cccc5c4C(=O)N([C@@H]4CCC(=O)NC4=O)C5=O)c(F)c3)CC2)nc1 [Cpd 206, (R)-6-(4-(4-((2-(2,6-dioxopiperidin-3-yl)-1,3-dioxoisoindolin-4-ylamino)methyl)-3-fluorobenzyl)piperazin-1-yl)nicotinamide]
6.30 to 6.70 | C[C@@H]1CN(C2CN(Cc3ccc(CNc4cccc5c4C(=O)N(C4CCC(=O)NC4=O)C5=O)c(F)c3)C2)C[C@H](C)O1 (stereo partly drawn) [Cpd 222, 4-(4-((3-((2R,6S)-2,6-dimethylmorpholino)azetidin-1-yl)methyl)-2-fluorobenzylamino)-2-(2,6-dioxopiperidin-3-yl)isoindoline-1,3-dione]
> 6.70 | CN1CCC2(CCN(Cc3ccc(CNc4cccc5c4C(=O)N(C4CCC(=O)NC4=O)C5=O)c(F)c3)CC2)C1=O (stereo not drawn) [Cpd 151, 2-(2,6-dioxopiperidin-3-yl)-4-(2-fluoro-4-((2-methyl-1-oxo-2,8-diazaspiro[4.5]decan-8-yl)methyl)benzylamino)isoindoline-1,3-dione]
> 6.70 | O=C1CCC(N2C(=O)c3cccc(NCc4ccc(CN5CC(N6CCCC6)C5)cc4F)c3C2=O)C(=O)N1 (stereo not drawn) [Cpd 218, 2-(2,6-dioxopiperidin-3-yl)-4-(2-fluoro-4-((3-(pyrrolidin-1-yl)azetidin-1-yl)methyl)benzylamino)isoindoline-1,3-dione]
6.30 to 6.70 | O=C1CCC(N2C(=O)c3cccc(NCc4ccc(CN5CCN(c6noc7ccccc67)CC5)cc4)c3C2=O)C(=O)N1 (stereo not drawn) [Cpd 187, 4-(4-((4-(benzo[d]isoxazol-3-yl)piperazin-1-yl)methyl)benzylamino)-2-(2,6-dioxopiperidin-3-yl)isoindoline-1,3-dione]
> 6.70 | O=C1CCC(N2C(=O)c3cccc(NCc4ccc(CN5CC6(CCCO6)C5)cc4F)c3C2=O)C(=O)N1 (stereo not drawn) [Cpd 230, 4-(4-(5-oxa-2-azaspiro[3.4]octan-2-ylmethyl)-2-fluorobenzylamino)-2-(2,6-dioxopiperidin-3-yl)isoindoline-1,3-dione]
> 6.70 | O=C1CC[C@H](N2C(=O)c3cccc(NCc4ccc(CN5CC(N6CCOCC6)C5)cc4F)c3C2=O)C(=O)N1 [Cpd 208, (S)-2-(2,6-dioxopiperidin-3-yl)-4-(2-fluoro-4-((3-morpholinoazetidin-1-yl)methyl)benzylamino)isoindoline-1,3-dione]
> 6.70 | NC(=O)c1ccc(N2CCN(Cc3ccc(CNc4cccc5c4C(=O)N(C4CCC(=O)NC4=O)C5=O)c(F)c3)CC2)cc1 (stereo not drawn) [Cpd 139, 4-(4-(4-((2-(2,6-dioxopiperidin-3-yl)-1,3-dioxoisoindolin-4-ylamino)methyl)-3-fluorobenzyl)piperazin-1-yl)benzamide]
> 6.70 | NC(=O)c1cc(N2CCN(Cc3ccc(CNc4cccc5c4C(=O)N(C4CCC(=O)NC4=O)C5=O)c(F)c3)CC2)ccn1 (stereo not drawn) [Cpd 192, 4-(4-(4-((2-(2,6-dioxopiperidin-3-yl)-1,3-dioxoisoindolin-4-ylamino)methyl)-3-fluorobenzyl)piperazin-1-yl)picolinamide]
> 6.70 | CCC1(OC)CCN(Cc2ccc(CNc3cccc4c3C(=O)N(C3CCC(=O)NC3=O)C4=O)cc2F)CC1 (stereo not drawn) [Cpd 157, 2-(2,6-dioxopiperidin-3-yl)-4-(4-((4-ethyl-4-methoxypiperidin-1-yl)methyl)-3-fluorobenzylamino)isoindoline-1,3-dione]
